Data reported in patent US10793582B2, “Bicyclic heterocyclic compound” (MITSUBISHI TANABE PHARMA CORPORATION, priority 2015, dated 2020).
Where a name gives a salt, the structure may show the parent alone.

target: human recombinant KAT-II (Homo sapiens (Human), UniProt Q8N5Z0); assay: KAT-II inhibitory test; assay type: biochemical; conditions: 3.0 μmol/L kynurenine, 37° C. for 1 hr, kynurenic acid by HPLC
Experimental: The compounds described in the above-mentioned Examples were used for the KAT-II inhibitory test.
Human recombinant KAT-II was prepared as follows.
His tag and maltose binding protein tag were added to the N-terminal of a gene encoding human KAT-II (Genbank accession number: AF481738.1), and the obtained gene was incorporated into pET32 (Merck Nihon Millipore), which is an Escherichia coli expression vector. Human recombinant KAT-II produced by BL21(DE3) Escherichia coli (Merck Nihon Millipore, 69450) transformed using the plasmid was purified using an amylose resin column (New England Biolabs, #800-21 L).
The inhibitory action of the test compound on human recombinant KAT-II was determined by the following method.
To a reaction mixture (45 μL) containing 3.0 μmol/L kynurenine, 10 μmol/L pyridoxal phosphate, 2.0 ng/μL human recombinant KAT-II, and 150 mmol/L tris(hydroxymethyl)aminomethane-acetate buffer (pH 8.0) was added a 10% dimethyl sulfoxide solution (5 μL) of each test compound prepared, and the mixture was reacted at 37° C. for 1 hr. After the reaction, 50% trichloroacetic acid (5 μL) was added to terminate the reaction.
The resultant kynurenic acid was quantified as follows by high performance liquid chromatography. An enzyme reaction mixture was separated by an octadecylsilane reversed-phase column (SC-50DS, Eicom Corporation; mobile phase: 250 mmol/L zinc acetate, 50 mmol/L sodium acetate, and 5.0% acetonitrile (pH 6.2)) incubated at 30° C., and kynurenic acid was quantified using a fluorescence detector (RF-20Axs, Shimadzu Corporation) at excitation wavelength 354 nm, detection wavelength 460 nm. The analytical curve was drawn every time by an external standard method. Each test compound was tested by dual measurement at each concentration. The kynurenic acid level in the presence of a test compound at each concentration was converted into % relative to kynurenic acid resulting from a reaction with an enzyme alone as 100%, and the obtained values were fitted to S-curve to determine IC50.

human recombinant KAT-II, sequence (Q8N5Z0 30-425): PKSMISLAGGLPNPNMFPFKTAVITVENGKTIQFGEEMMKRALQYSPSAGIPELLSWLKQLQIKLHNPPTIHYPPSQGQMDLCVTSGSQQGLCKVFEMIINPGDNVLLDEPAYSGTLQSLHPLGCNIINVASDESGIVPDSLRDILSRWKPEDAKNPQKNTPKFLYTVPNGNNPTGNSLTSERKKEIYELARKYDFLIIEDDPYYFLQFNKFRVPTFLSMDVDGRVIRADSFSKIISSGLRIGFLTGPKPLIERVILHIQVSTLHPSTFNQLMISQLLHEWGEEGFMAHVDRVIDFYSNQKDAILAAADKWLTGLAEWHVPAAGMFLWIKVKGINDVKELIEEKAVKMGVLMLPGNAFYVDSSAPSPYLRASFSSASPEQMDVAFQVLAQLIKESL

Going from `CCc1cnc2nc(N3CCC[C@@H]3C(=O)NCc3ccc(F)cc3)sc2n1` [Example 188] to `O=C(NCc1ccccc1)[C@H]1CCCN1c1nc2ncc(C3CC3)nc2s1` [Example 192, (R)—N-benzyl-1-(6-cyclopropyl[1,3]thiazolo[4,5-b]pyrazin-2-yl)pyrrolidine-2-carboxamide], the IC50 falls from 300 nM to 33 nM (9.1-fold).

Going from `CCOc1nc(C)c2sc(N3CCC[C@@H]3C(=O)NCc3ccccc3)nc2n1` [Example 88] to `CCOc1ncnc2nc(N3CCC[C@@H]3C(=O)NCc3ccccc3)sc12` [Example 19, (R)—N-benzyl-1-(7-ethoxy[1,3]thiazolo[4,5-d]pyrimidin-2-yl)pyrrolidine-2-carboxamide], the IC50 falls from 420 nM to 37 nM (11-fold).

`N#CC1(c2cnc3nc(N4CCC[C@@H]4C(=O)NCc4ccccc4)sc3c2)CCC1` [Example 115] and `N#CC1(c2cnc3nc(N4CCC[C@@H]4C(=O)NCc4ccccc4)sc3c2)CCOCC1` [Example 116] are within 1.5-fold of each other in IC50: 70 nM for the first, 90 nM for the second.

`Cc1cnc2nc([C@H]3CCCN3C(=O)Oc3ccccc3)sc2c1` [Example 197, phenyl (R)-2-(6-methyl[1,3]thiazolo[4,5-b]pyridin-2-yl) pyrrolidine-1-carboxylate] and `Cc1cnc2nc([C@H]3CCCN3C(=O)Cc3ccccc3)sc2c1` [Example 196, 1-[(R)-2-(6-methyl[1,3]thiazolo[4,5-b]pyridin-2-yl)pyrrolidin-1-yl]-2-phenylethanone] are within 1.5-fold of each other in IC50: 3000 nM for the first, 2900 nM for the second.

Going from `COCc1ncnc2nc(N3CCC[C@@H]3C(=O)NCc3ccccc3)sc12` [Example 33] to `COCCc1ncnc2nc(N3CCC[C@@H]3C(=O)NCc3ccccc3)sc12` [Example 32], the IC50 falls from 600 nM to 390 nM (1.5-fold).

`O=C(NCc1ccccc1)[C@H]1CCCN1c1nc2ncc(OC3COC3)cc2s1` [Example 151] and `O=C(NCc1ccccc1)[C@H]1CCCN1c1nc2ncc(C3(O)CCC3)cc2s1` [Example 126] are within 1.5-fold of each other in IC50: 270 nM for the first, 190 nM for the second.

Compared with `O=C(NCc1ccccc1)[C@H]1CCCN1c1nc2ncnc(OC3CCC3)c2s1` [Example 89, (R)—N-benzyl-1-[7-(cyclobutyloxy)[1,3]thiazolo[4,5-d]pyrimidin-2-yl]pyrrolidine-2-carboxamide], `O=C(NCc1ccccc1)[C@H]1CCCN1c1nc2ncnc(C3CC3)c2s1` [Example 23, (R)—N-benzyl-1-(7-cyclopropyl[1,3]thiazolo[4,5-d]pyrimidin-2-yl)pyrrolidine-2-carboxamide] is 1.8-fold lower in IC50: 46 nM for the first, 26 nM for the second. The second is the more potent here.

First: COCc1ncnc2nc(N3CCC[C@@H]3C(=O)N[C@H](C)c3ccccc3)sc12 [Example 34]
Second: O=C(NCc1ccccc1)[C@H]1CCCN1c1nc2ncnc(Oc3ccccc3)c2s1 [Example 66]
The IC50 of the first is 53-fold higher: 640 nM for the first, 12 nM for the second.

First: N#Cc1cnc2nc(N3CCC[C@@H]3C(=O)NCc3ccccc3)sc2c1C1CC1 [Example 161]
Second: O=C(NCc1ccccc1)[C@H]1CCCN1c1nc2ncc(CN3CCCCC3)c(C3CC3)c2s1 [Example 175, (R)—N-benzyl-1-[7-cyclopropyl-6-(piperidin-1-ylmethyl)[1,3]thiazolo[4,5-b]pyridin-2-yl]pyrrolidine-2-carboxamide hydrochloride]
The IC50 of the first is 4.4-fold lower: 81 nM for the first, 360 nM for the second.

First: COC1(c2cnc3nc(N4CCC[C@@H]4C(=O)NCc4ccccc4)sc3c2)CCC1 [Example 127]
Second: O=C(NCc1ccccc1)[C@H]1CCCN1c1nc2ncc(C(F)(F)F)cc2s1 [Example 124]
The IC50 of the first is 2.5-fold lower: 280 nM for the first, 710 nM for the second. The first is the more potent here.

Going from `N#Cc1cnc2nc(N3CCC[C@@H]3C(=O)NCc3ccccc3Cl)sc2c1` [Example 178] to `CCOc1nc(C2CCOCC2)nc2nc(N3CCC[C@@H]3C(=O)NCc3ccccc3)sc12` [Example 75], the IC50 falls from 900 nM to 95 nM (9.5-fold).

Going from `O=C(NCc1ccccc1)[C@H]1CCCN1c1nc2nc(CC3CCOCC3)nc(C3CC3)c2s1` [Example 46] to `O=C(NCc1ccccc1)[C@H]1CCCN1c1nc2nc(C(F)F)nc(C3CCOCC3)c2s1` [Example 55], the IC50 rises from 35 nM to 410 nM (12-fold). The first is the more potent here.

`C[C@H](C(=O)NCc1ccccc1)N(Cc1ccccn1)c1nc2ncnc(C3CC3)c2s1` [Example 39] gave an IC50 of 350 nM.
